# Like-named read-outs stand apart in the source and are kept apart here.
# Experiments:
# C. difficile [1] = experiment: MIC by agar dilution, C. difficile; type: cell-based, Clostridium difficile
# MRSA = experiment: MIC testing by broth dilution, MRSA; type: cell-based, Staphylococcus aureus
# Outline: (§1)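 Values are broth-dilution MICs, defined as the well showing no growth on visual reading after 24 h; the tested range was 32 to 0.06 μg/ml, in organism-specific media (LB, Trypticase Soy, Brain Heart Infusion). The C. difficile entries come instead from anaerobic Kirby-Bauer disk zones, normalised to NTZ.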
# E. coli = experiment: MIC testing by broth dilution, E. coli plank; type: cell-based, Escherichia coli
# Outline: as §1
# C. difficile [2] = experiment: Disk diffusion (Kirby Bower), C. difficile; type: cell-based, Clostridium difficile; conditions: for Disk Diff (%) C. difficile: Nitazoxanide = 100
# Outline: as §1
# S. epidermidis = experiment: Aerobic growth of S. epidermidis in shaken TSB flasks; type: cell-based, Staphylococcus epidermidis
# Description: Minimal inhibitory concentration testing of NTZ was done in sterile round bottom 96 well microtiter polystyrene plates (Corning Inc., Corning, N.Y.) by microdilution. Tizoxanide TIZ (deacetylated form of NTZ), denitro-NTZ (TIZ without 5-nitro group) and amoxanide AMIX (TIZ-ethylamine) were also tested. Bacteria were grown overnight and suspended in fresh TSB to an OD600 of 0.01 and 100 μl were dispensed into wells with the first well containing 200 μA NTZ and other antibiotics (DMSO control) were added to well one and serially diluted from 32 μg/ml. All compounds were tested in triplicate and plates were read visually or with a plate reader (Molecular Devices) at 8, 12 and at 24 h. MIC was determined as the first well in which no visible bacterial growth was noted relative to controls. Drug effects on aerobic growth were determined in 125 ml flasks containing 25 ml of TSB medium and following inoculation (detailed above), flasks were on a gyrorotary shaker (200 rpm) at 37° C. Final concentrations of NTZ were 0, 10 and 25 μg/ml and samples were removed at hourly intervals and absorbance determined at 600 nm.
# [3] = test system: S. epidermidis strain 9142; experiment: Effect of zinc on the action of NTZ (biofilm and MIC); type: cell-based, Staphylococcus epidermidis; conditions: zinc 20 μM, read at 8 h
# Description: […] As a control, ZnCl2 was added to untreated bacteria. Additional controls included testing of 10 μM CaCl2 and MgCl2 in the same format. The inhibitory effect of EDTA on biofilm production and its reversibility by Zn^2+ was also assessed as described for NTZ.
# Solubility in water = type: physicochemical; conditions: water
# [4] = test system: AafA fimbriae of EAEC 042; experiment: Fimbrial filaments by SDS-PAGE, immunoblot, immunofluorescence; type: cell-based, Escherichia coli; conditions: EAEC 042, MinA-G, 20 μg/ml
# Description: A simplified procedure for mechanical removal of fimbriae was modified from Dodd and Eisenstein (5). […] The cultures were spun down at 4,000 rpm for 5 min at 25° C. Pellets were resuspended in 2 ml PBS, vortexed 2× for 30 sec to shear off flagella and fimbriae, and then centrifuged at 8,000 rpm for 10 min to remove whole cells. The supernatants, containing fimbrial filaments, were transferred to new tubes, and 8 ml of acetone were added to precipitate proteins. Solutions were spun down again at 8,000 rpm for 10 min, and the acetone was decanted. The remaining protein pellets were resuspended in 50 μl PBS and 100 μl 3× loading buffer containing 2-mercaptoethanol.
# To analyze the proteins contained in the biofilm, the flasks were rinsed with water to remove residual bacteria, and the biofilms were dissolved in 1-2 ml 1% SDS. 50 μl of each solution was combined with 100 μl 3× loading buffer in PCR tubes. All five samples were run in a NuPAGE 4-12% Bis-Tris gel at 120 V and stained with Coomassie brilliant blue or used directly for transfer of proteins to nitrocellulose.
# Ponceau red stained nitrocellulose was used to visualize transferred proteins and immunoblotting protocols used in this study as described (14). […] The slides were washed 3× in PBS, dried and visualized with a Zeiss epi-fluorescence microscope.
# [5] = test system: EAEC strains 042 and 17-2; conditions: previous studies (38), cited from earlier work
smiles,measurement,setting,value
"CC(=O)Oc1ccccc1C(=O)Nc1ncc([N+](=O)[O-])s1 [Nitazoxanide, 2-(acetyloxy)-N-(5-nitro-2-thiazolyl)benzamide, reference compound]",MIC,"C. difficile [1]; 2-amino-3,5-dinitrothiophene analogues table, read-out: MIC C. difficile",52.1 µM
same,MIC,"C. difficile [1]; Clostridioides difficile, Furan analogues table, read-out: MIC C. difficile",52.1 µM
same,MIC,"C. difficile [1]; Clostridioides difficile, agar dilution, anaerobic, Wilkins Chalgrin agar, read-out: MIC (μM) C. difficile",52.1 µM
same,MIC,"C. difficile [1]; Thiophene analogues table, read-out: MIC C. difficile",52.1 µM
same,MIC,"MRSA; 2-amino-3,5-dinitrothiophene analogues table, read-out: MIC MRSA",39.1 µM
same,MIC,"MRSA; Staphylococcus aureus, MRSA, broth dilution, Trypticase Soy, 24 h, read-out: MIC (μM) MRSA",39.1 µM
same,MIC,"MRSA; Thiophene analogues table, read-out: MIC MRSA",39.1 µM
same,MIC,"E. coli; Escherichia coli, broth dilution, LB medium, 24 h, read-out: MIC (μM) E. coli Plank",104 µM
same,MIC,"E. coli; Escherichia coli, planktonic, Furan analogues table, read-out: MIC E. coli Plank",104 µM
same,MIC,"E. coli; planktonic, 2-amino-3,5-dinitrothiophene analogues table, read-out: MIC E. coli Plank",104.1 µM
same,MIC,"E. coli; planktonic, Thiophene analogues table, read-out: MIC E. coli Plank",104.1 µM
same,Disk Diff (%) C. difficile,"C. difficile [2]; 2-amino-3,5-dinitrothiophene analogues table",100%
same,Disk Diff (%) C. difficile,C. difficile [2]; Furan analogues table,100%
same,Disk Diff (%) C. difficile,C. difficile [2]; Thiophene analogues table,100%
same,Disk Diffusion (%) C. difficile,C. difficile [2]; zone of inhibited growth as relative ratio to the zone for NTZ,100%
same,Effect on exponential growth rates,S. epidermidis; 10 μg/ml,little effect on exponential growth rates
same,Inhibition of growth in liquid culture under vigorous aeration,S. epidermidis; 25 μg/ml,significant inhibition
same,Effect of Zn2+ on the growth inhibitory action (MIC),[3],no effect
same,solubility,Solubility in water,< 32 µg/mL
same,Fimbrial filaments from vortexed whole cells,[4],nearly absent
same,Concentrations inhibitory for growth on MinA base medium,[5]; E. coli papillation assay,higher than 15 μg/ml
same,"MIC in LB medium, previous studies",[5],> 64 µg/mL
